{
  "source": "patent US20120225862A1",
  "about": "“HETEROARYL BENZAMIDES, COMPOSITIONS AND METHODS OF USE” (AUCKLAND UNIVSERVICES LIMITED, priority 2009, published 2012)",
  "key": {"[1]": {"experiment": "Normal tissue toxicity (histology)", "type": "in vivo", "conditions": "treated mice; kidney, spleen, liver, heart, salivary gland, brain", "procedure": "FIG. 5A-E In vivo monitoring and efficacy of compound 47. […] 786-O, a renal clear cell carcinoma with a naturally occurring VHL mutation, were implanted subcutaneously into the flanks of CD-1 nude mice. Representative axial cross section of a mouse prior to treatment (left) and following three daily i.p. injections with compound 85 (11.6 mg/kg)(right), overlaid over CT scan. (B) Quantitatively, compound 85 inhibits FDG-PET in mouse xenografts. Quantification of FDG-PET inhibition by compound 85 as determined by the 90th percentile ROI for percent injected dose per gram (% ID/g) (*p<0.01). (C) Compound 85 is not toxic to normal tissues. (a, b) Kidney of vehicle- and compound 85-treated animals. (c, d) Spleen of vehicle- and compound 85-treated animals. (e, f) Liver of vehicle- and compound 85-treated animals. (g, h) Heart of vehicle- and compound 85-treated animals. (i, j) Salivary gland of vehicle- and compound 85-treated animals. (k, l) Brain of vehicle- and compound 85-treated animals. Scale bar represents 100 microns. (D) Compound 85 delays tumor growth. 786-O tumor-bearing mice were treated daily with vehicle or compound 85 (11.6 mg/kg for the first 3 days, followed by 7.8 mg/kg for the next week)(*p<0.005). […]\nIn Vivo Studies and Immunohistochemistry. […] Tumors were measured with calipers. Volume was calculated by the following formula: width^2×0.5 length. […]"}, "RCC4/VHL": {"test_system": "RCC4/VHL", "experiment": "XTT IC50 assay, selectivity RCC4 versus RCC4 with VHL-reintroduced", "type": "cell-based, human", "conditions": "selectivity ratio of XTT IC50 values, RCC4 vs RCC4/VHL", "in_short": "(§1)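 RCC4 parental and VHL-reintroduced RCC4/VHL cells (DMEM, 10% FCS) treated with serially diluted drug for four days. Viability by XTT (0.3 mg/mL) with N-methyl dibenzopyrazine methyl sulfate, 1–2 h at 37 °C, absorbance 450 nm; IC50 by linear interpolation.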"}, "[2]": {"experiment": "Solubility (comparison in words)", "type": "physicochemical"}, "ACHN shVHL": {"test_system": "ACHN shVHL", "experiment": "Xenograft tumor growth, ACHN expressing shRNA to VHL", "type": "in vivo, mice", "conditions": "daily systemic treatment ten to fourteen days, vs vehicle", "procedure": "(§2) Five million cells were injected into the flanks of nu/nu mice (4-6 weeks old males) and allowed to grow to approximately 50 mm^3. The mice were injected daily by intra-peritoneal to deliver either vehicle or drug. Tumors were measured every other day and tumor volume was calculated as 0.5 length by width squared.\n(§3) In Vivo Studies and Immunohistochemistry. All experiments were approved by Stanford's Administrative Panel on Laboratory Animal Care (APLAC) and in accordance with both institutional and national guidelines. Five million cells were implanted subcutaneously into the flanks of nude mice (4-6 weeks old)(Charles River Laboratories). Tumors were measured with calipers. Volume was calculated by the following formula: width^2×0.5 length. Once tumors reached an average size of >20 mm^3, mice were randomized into vehicle (DMSO diluted in 16% cremaphor EL/PBS) or treated groups. Mice were treated with compound 85 (11.6 mg/kg for the first 3 days, followed by 7.8 mg/kg for the 7-9 days). Five-micron sections were cut for immunohistochemistry. Sections were counterstained with hematoxylin and eosin. For 2-[^18F]-fluoro-2-deoxy-glucose-positron emission tomography imaging, mice bearing tumors were fasted overnight. The next day, the mice were anesthetized with 2% isoflurane and injected intraperitoneally with 250 μCi of FDG. […]"}, "786-O [3]": {"test_system": "786-O", "experiment": "Xenograft tumor growth, 786-O", "type": "in vivo, mice", "conditions": "daily, 11.6 mg/kg for 3 days then 7.8 mg/kg, ten to fourteen days, vs vehicle", "procedure": "as §2, §3"}, "RCC4": {"test_system": "RCC4", "experiment": "XTT IC50 / viability assay, RCC4 cells", "type": "cell-based, human", "conditions": "Homo sapiens, RCC4, 96 h; XTT assay, four days", "in_short": "as §1"}, "ACHN": {"test_system": "ACHN", "experiment": "Xenograft tumor growth, ACHN with wild-type VHL", "type": "in vivo, mice", "conditions": "daily treatment vs vehicle control", "procedure": "as §2, §3"}, "786-O [4]": {"test_system": "786-O", "experiment": "FDG-PET imaging of 786-O xenografts", "type": "in vivo, mice", "procedure": "FIG. 5A-E In vivo monitoring and efficacy of compound 47. […] 786-O, a renal clear cell carcinoma with a naturally occurring VHL mutation, were implanted subcutaneously into the flanks of CD-1 nude mice. Representative axial cross section of a mouse prior to treatment (left) and following three daily i.p. injections with compound 85 (11.6 mg/kg)(right), overlaid over CT scan. (B) Quantitatively, compound 85 inhibits FDG-PET in mouse xenografts. Quantification of FDG-PET inhibition by compound 85 as determined by the 90th percentile ROI for percent injected dose per gram (% ID/g) (*p<0.01). (C) Compound 85 is not toxic to normal tissues. (a, b) Kidney of vehicle- and compound 85-treated animals. (c, d) Spleen of vehicle- and compound 85-treated animals. (e, f) Liver of vehicle- and compound 85-treated animals. (g, h) Heart of vehicle- and compound 85-treated animals. (i, j) Salivary gland of vehicle- and compound 85-treated animals. (k, l) Brain of vehicle- and compound 85-treated animals. Scale bar represents 100 microns. (D) Compound 85 delays tumor growth. 786-O tumor-bearing mice were treated daily with vehicle or compound 85 (11.6 mg/kg for the first 3 days, followed by 7.8 mg/kg for the next week)(*p<0.005). (E) Compound 85 delays tumor growth in cells that have lost VHL. ACHN cells expressing a short hairpin RNA to VHL were implanted subcutaneously into the flanks of immunocompromised mice. Once tumors reached an average of >20 mm^3, mice were treated daily with compound 85 or vehicle (*p<0.05). All error bars represent the standard error of the mean.\nIn Vivo Studies and Immunohistochemistry. All experiments were approved by Stanford's Administrative Panel on Laboratory Animal Care (APLAC) and in accordance with both institutional and national guidelines. Five million cells were implanted subcutaneously into the flanks of nude mice (4-6 weeks old)(Charles River Laboratories). Tumors were measured with calipers. Volume was calculated by the following formula: width^2×0.5 length. […]"}},
  "data": [
    {"smiles": "CN1CCN(c2ccc(S(=O)(=O)NCc3ccc(C(=O)Nc4cccnc4)cc3)cc2)CC1", "note": "[Example 76, 4-((4-(4-Methylpiperazin-1-yl)phenylsulfonamido)methyl)-N-(pyridin-3-yl)benzamide]", "values": [
      {"measurement": "normal tissue toxicity", "setting": "[1]", "result": "no normal tissue toxicity"},
      {"measurement": "Ratio (RCC4:RCC/VHL)", "setting": "RCC4/VHL", "result": "c (“c” reflects a ratio of >100)"},
      {"measurement": "solubility relative to compound 47", "setting": "[2]", "result": "more soluble"},
      {"measurement": "tumor growth, ACHN shVHL xenografts", "setting": "ACHN shVHL", "result": "markedly delayed tumor growth"},
      {"measurement": "tumor growth, 786-O xenografts", "setting": "786-O [3]", "result": "markedly delayed tumor growth"},
      {"measurement": "IC50", "setting": "RCC4", "result": "< 1000", "unit": "nM"},
      {"measurement": "tumor growth, ACHN wild-type VHL xenografts", "setting": "ACHN", "result": "grew at similar rates"},
      {"measurement": "glucose uptake within tumors by FDG-PET", "setting": "786-O [4]; 786-O xenografts in CD-1 nude mice, three daily i.p. doses (11.6 mg/kg)", "result": "striking decrease in glucose uptake within the tumors"},
      {"measurement": "tumor FDG uptake, quantified (% ID/g)", "setting": "786-O [4]; 786-O xenografts, FIG. 5B", "result": "consistently decreased FDG uptake"}
    ]}
  ]
}
